According to patent US20250332173A1, “COMPOUNDS AND METHODS FOR MODULATING NUCLEIC ACID SPLICING” (REMIX THERAPEUTICS INC., priority 2021, published 2025):
pIC50: −log10 of the molar value. Where two headings read alike, the source gives them in different places.

How the values were obtained:
[1] = test system: K562 (human chronic myelogenous leukemia) cells; assay: Cell Titer Glo 2.0 cell viability assay; format: cell-based; settings: Homo sapiens, K562, 72 h, K562 cells, 72 hours, Cell Titer Glo 2.0; read-out: K562 GI50
SMN2 mRNA = assay: RT-qPCR splicing assay, SMN2 canonical junction (CJ) mRNA; format: cell-based, human; settings: Homo sapiens
In short: (§1)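 Canonical-junction transcript levels in compound-treated A673 or K562 cells (24 h, up to 10 uM final) were determined from lysates by RT-qPCR with housekeeping-gene normalization.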

Target C [2] = assay: RT-qPCR splicing assay panel, Target C canonical junction (CJ) mRNA; format: cell-based, human; settings: Homo sapiens
In short: as §1

HTT mRNA = assay: RT-qPCR splicing assay, HTT canonical junction (CJ) and alternative junction (AJ) mRNA; format: cell-based, human; settings: Homo sapiens; for AC50: increase in HTT alternative junction (AJ) mRNA, read-out: HTT AJ AC50
In short: (§2)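 A673 cells (normalized to PPIA) or K562 cells (normalized to GAPDH or GUSB) were treated 24 h at 37 °C with an 11-point 3-fold dilution series, top 10 uM, DMSO ≤0.25%. Cell lysates went to one-step RT-qPCR measuring canonical- and alternative-junction MYB or HTT transcripts.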

MYB mRNA = assay: RT-qPCR splicing assay, MYB canonical junction (CJ) and alternative junction (AJ) mRNA; format: cell-based, human; settings: Homo sapiens; for AC50: increase in MYB alternative junction (AJ) mRNA, read-out: MYB AJ AC50
In short: as §2

Target C [3] = assay: HiBiT protein abundance assay, Target C (Promega Nano-Glo HiBiT Lytic Detection System, knock-in K562 cell line); format: cell-based, human; settings: Homo sapiens, K562, 24 h, HiBiT K562 cell line, 24 hours, top dose 10 μM; read-out: Effect on protein abundance, Target C (IC50 category)
Method: (§3) • Promega Nano-Glo HiBiT Lytic Detection System (cat #N3030) • Corning 384-well TC-treated microplates (cat #3570) • Synthego Engineered Cells Knock-In Clones
(§4) Cells were maintained in IMDM with 10% FBS. Before the assay, cells were diluted with […] growth media (IMDM+[…] media) and were seeded in a 384-well plate at a density of 10,000 cells/well (for each cell line listed in Table 5). Each compound was prepared as a 10-point 3-fold serial dilution in DMSO with the top dose at a final concentration of 10 μM in the well. Unmodified K562 cells were added at the previously specified density with DMSO to serve as an assay baseline and positive control (PC) and DMSO only with the respective modified cell lines was added to the negative control (NC) columns. Final DMSO concentration was kept at or below 0.25%. Treated cell plates were placed in an incubator at 37° C. with […] for 24 hours. After 24 hours, 25 μL of Complete HiBit Lytic reagent was added to each well at room temperature (e.g. one plate requiring 10 mL Lytic Buffer, 100 μL LgBiT Protein, 200 μL Lytic Substrate), shaken for 5 minutes at 600 RPM, then left to sit for 10 minutes for signal to stabilize before reading on a Spark Cyto plate reader (Tecan) with a 500 ms measurement time.
(§5) To determine compound effects on protein abundance of each target in Table 5, the percent response for each respective cell line was calculated at each compound concentration as follows:
(§6) For the normalized response at each concentration, a four-parameter logistical regression was fit to the data and the response was interpolated at the […] to determine a concentration for protein abundance at […] the untreated control.

MYB = assay: HiBiT protein abundance assay, MYB HiBiT K562 cell line; format: cell-based, human; settings: HiBiT K562 cell line, 24 hours, top dose 10 μM; read-out: Effect on protein abundance, MYB (IC50 category)
Method: (§7) Compounds described herein were used to screen for effects on quantitative protein abundance using a HiBit assay system (Promega). Quantitative protein abundance was determined by measuring the protein levels of HiBit-tagged protein targets expressed in cell culture via luminescence using the Nano-Glo HiBiT Lytic Detection System, which uses a split complementation assay format to reconstitute NanoBiT enzyme to generate a luminescent signal. A protein abundance assay was developed such that endogenous protein targets could be modified with the HiBiT peptide tag and their abundance could be assessed after compound treatment. Briefly, K562 cell lines containing a HiBiT-modification were treated with various compounds described herein (e.g., compounds of Formulas (I), (II), (III), (IV), (V), (VI), (VII), (VIII), or (IX)). After treatment for 24 hours, the protein abundance of a specific target was determined by measuring luminescence.
as §3, §4, §5, §6

HTT = assay: HiBiT protein abundance assay, HTT HiBiT K562 cell line; format: cell-based, human; settings: HiBiT K562 cell line, 24 hours, top dose 10 μM; read-out: Effect on protein abundance, HTT (IC50 category)
Method: as §7, §3, §4, §5, §6

[4] = decrease in HTT canonical junction (CJ) mRNA, RT-qPCR, read-out: HTT CJ IC50
[5] = decrease in MYB canonical junction (CJ) mRNA, RT-qPCR, read-out: MYB CJ IC50
[6] = canonical junction qPCR panel, Table 5, read-out: SMN2 (decrease in CJ mRNA levels, IC50)
[7] = canonical junction qPCR panel, Table 5, read-out: Target C (decrease in CJ mRNA levels, IC50)
[8] = canonical junction qPCR panel, Table 5, read-out: HTT (decrease in CJ mRNA levels, IC50)
[9] = canonical junction qPCR panel, Table 5, read-out: MYB (decrease in CJ mRNA levels, IC50)

| SMILES | GI50 [1] [nM] | pIC50 (SMN2 mRNA; Table 5 panel, canonical junction qPCR, compound concentration having 50% response in CJ decrease, read-out: SMN2 IC50 (decrease in CJ mRNA levels)) | pIC50 (Target C [2]; Table 5 panel, canonical junction qPCR, compound concentration having 50% response in CJ decrease, read-out: Target C IC50 (decrease in CJ mRNA levels)) | pIC50 (HTT mRNA; [4]) | AC50 (HTT mRNA; RT-qPCR) [nM] | pIC50 (HTT mRNA; Table 5 panel, canonical junction qPCR, compound concentration having 50% response in CJ decrease, read-out: HTT IC50 (decrease in CJ mRNA levels)) | pIC50 (MYB mRNA; Table 5 panel, canonical junction qPCR, compound concentration having 50% response in CJ decrease, read-out: MYB IC50 (decrease in CJ mRNA levels)) | pIC50 (MYB mRNA; [5]) | AC50 (MYB mRNA; RT-qPCR) [nM] | pIC50 (Target C [3]) | pIC50 (MYB) | pIC50 (HTT) | pIC50 (SMN2 mRNA; [6]) | pIC50 (Target C [2]; [7]) | pIC50 (HTT mRNA; [8]) | pIC50 (MYB mRNA; [9]) |
| --- | --- | --- | --- | --- | --- | --- | --- | --- | --- | --- | --- | --- | --- | --- | --- | --- |
| Cc1cn2cc(-c3cc(F)c4c(=O)n(C5CCNC5)cnc4c3)cc(F)c2n1 (stereo not drawn) [Compound 344] | 1000 to 10000 | > 7.00 | 5.00 to 6.00 | 5.00 to 6.00 | 1000 to 10000 | 5.00 to 6.00 | 6.00 to 7.00 | 6.00 to 7.00 | 100 to 1000 | < 5.00 | – | – | – | – | – | – |
| Cc1cn2nc(-c3cc(O)c4c(=O)n(C5CCNC6(CC6)C5)ccc4c3)cc(C)c2n1 (stereo not drawn) [Compound 466, 6-(2,8-dimethylimidazo[1,2-b]pyridazin-6-yl)-8-hydroxy-2-(4-azaspiro[2.5]octan-7-yl)isoquinolin-1(2H)-one] | < 100 | – | – | – | – | – | – | – | – | > 7.00 | > 7.00 | > 7.00 | – | – | – | – |
| Cc1cn2nc(-c3cc(C)c4c(=O)n([C@H]5CCNC6(CC6)C5)ncc4c3)cc(C)c2n1 [Compound 467] | 1000 to 10000 | – | – | – | – | – | – | – | – | 6.00 to 7.00 | 6.00 to 7.00 | 6.00 to 7.00 | – | – | – | – |
| Cc1cn2nc(-c3cc(C)c4c(=O)n([C@@H]5CCNC6(CC6)C5)ncc4c3)cc(C)c2n1 [Compound 468] | 100 to 1000 | – | – | – | – | – | – | – | – | > 7.00 | > 7.00 | > 7.00 | – | – | – | – |
| Cc1cn2nc(-c3cc(O)c4c(=O)n([C@H]5CCNC6(CC6)C5)ncc4c3)cc(C)c2n1 [Compound 469] | < 100 | – | – | – | – | – | – | – | – | > 7.00 | > 7.00 | > 7.00 | – | – | – | – |
| Cc1cn2nc(-c3cc(O)c4c(=O)n([C@@H]5CCNC6(CC6)C5)ncc4c3)cc(C)c2n1 [Compound 470] | 100 to 1000 | – | – | – | – | – | – | – | – | > 7.00 | 6.00 to 7.00 | > 7.00 | – | – | – | – |
| Cc1cn2nc(-c3cc(F)c4c(=O)n(C5CCNCC5)cnc4c3)cc(C#N)c2n1 [Compound 501] | 100 to 1000 | – | – | – | – | – | – | – | – | > 7.00 | > 7.00 | > 7.00 | – | – | – | – |
| Cc1cn2c(n1)CCC(c1cc(F)c3c(=O)n(C4CCNCC4)cnc3c1)C2 (stereo not drawn) [Compound 502, 5-fluoro-7-{2-methyl-5H,6H,7H,8H-imidazo[1,2-a]pyridin-6-yl}-3-(piperidin-4-yl)quinazolin-4-one] | > 10000 | – | – | – | – | – | – | – | – | < 5.00 | < 5.00 | < 5.00 | – | – | – | – |
| Cc1cn2nc(-c3cc4ncn(C5CCNCC5)c(=O)c4cc3O)cc(C)c2n1 [Compound 503, 7-{2,8-dimethylimidazo[1,2-b]pyridazin-6-yl}-6-hydroxy-3-(piperidin-4-yl)quinazolin-4-one] | 1000 to 10000 | – | – | – | – | – | – | – | – | 6.00 to 7.00 | > 7.00 | > 7.00 | – | – | – | – |
| COc1cc2c(=O)n(C3CCNCC3)cnc2cc1-c1cc(C)c2nc(C)cn2n1 [Compound 504, 7-{2,8-dimethylimidazo[1,2-b]pyridazin-6-yl}-6-methoxy-3-(piperidin-4-yl)quinazolin-4-one] | > 10000 | – | – | – | – | – | – | – | – | < 5.00 | < 5.00 | < 5.00 | – | – | – | – |
| Cc1c(O)c(-c2ccc3c(=O)n(C4CCNCC4)cnc3n2)cc2cn(C)nc12 [Compound 505, 7-(6-hydroxy-2,7-dimethyl-2H-indazol-5-yl)-3-(piperidin-4-yl)pyrido[2,3-d]pyrimidin-4(3H)-one] | 100 to 1000 | – | – | – | – | – | – | – | – | 6.00 to 7.00 | 6.00 to 7.00 | 6.00 to 7.00 | – | – | – | – |
| COc1c(-c2ccc3c(=O)n(C4CCNCC4)cnc3n2)cc2cn(C)nc2c1C [Compound 506, 7-(6-methoxy-2,7-dimethylindazol-5-yl)-3-(piperidin-4-yl)pyrido[2,3-d]pyrimidin-4-one] | > 10000 | – | – | – | – | – | – | – | – | < 5.00 | < 5.00 | < 5.00 | – | – | – | – |
| Cc1cn2nc(-c3ccc4c(=O)n([C@H]5CCNC6(CC6)C5)ncc4n3)cc2c(C)n1 [Compound 1549, 6-[(7S)-4-azaspiro[2.5]octan-7-yl]-2-(4,6-dimethylpyrazolo[1,5-a]pyrazin-2-yl)pyrido[2,3-d]pyridazin-5-one] | 1000 to 10000 | – | – | 6.00 to 7.00 | 100 to 1000 | – | – | 5.00 to 6.00 | 1000 to 10000 | – | – | – | 6.00 to 7.00 | 5.00 to 6.00 | 6.00 to 7.00 | 5.00 to 6.00 |
| Cc1cn2nc(-c3ccc4c(=O)n([C@H]5CCN[C@@H](C6CC6)C5)ncc4n3)cc(C)c2n1 [Compound 1550] | 1000 to 10000 | – | – | 6.00 to 7.00 | 100 to 1000 | – | – | 6.00 to 7.00 | 100 to 1000 | – | – | – | 6.00 to 7.00 | 6.00 to 7.00 | 6.00 to 7.00 | 6.00 to 7.00 |
| Cc1cn2nc(-c3ccc4c(=O)n([C@@H]5CCN[C@@H](C6CC6)C5)ncc4n3)cc(C)c2n1 [Compound 1551] | 100 to 1000 | – | – | 6.00 to 7.00 | 100 to 1000 | – | – | 6.00 to 7.00 | 100 to 1000 | – | – | – | > 7.00 | 6.00 to 7.00 | 6.00 to 7.00 | 6.00 to 7.00 |
| CN1CCN(c2ccc3ncn(-c4cc(F)c5nn(C)cc5c4)c(=O)c3c2)CC1 [Compound 2194] | 1000 to 10000 | – | – | 5.00 to 6.00 | 1000 to 10000 | – | – | 5.00 to 6.00 | 1000 to 10000 | – | – | – | 5.00 to 6.00 | 5.00 to 6.00 | 5.00 to 6.00 | 5.00 to 6.00 |
